One data set deals with T1, DmBCA (Drosophila melanogaster, UniProt Q9VHJ5).
T1 construct: gene CAHbeta; C-terminal thrombin site and His6; baculovirus/Sf9, purified from culture supernatant; thrombin treatment to remove tag; 28/27 kDa before/after thrombin; dimer
T1 sequence (Q9VHJ5 1-255): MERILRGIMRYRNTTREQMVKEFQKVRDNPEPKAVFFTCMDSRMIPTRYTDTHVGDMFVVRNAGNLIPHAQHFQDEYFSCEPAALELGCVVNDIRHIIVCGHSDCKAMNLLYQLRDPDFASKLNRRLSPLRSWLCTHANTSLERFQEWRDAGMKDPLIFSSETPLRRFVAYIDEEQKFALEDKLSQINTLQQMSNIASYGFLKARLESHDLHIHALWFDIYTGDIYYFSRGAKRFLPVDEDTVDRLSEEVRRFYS
The data set is described as follows: stopped-flow CO2 hydration assay. Format: biochemical.

Data set [1] deals with the molecule itself. The data set is described as follows: dynamic light scattering + SEC; DLS (Zetasizer ZS): proteins exchanged to 50 mM Na2HPO4 pH 7.0, 100 mM NaCl, temperature scan 4-50°C, mass estimated from the hydrodynamic diameter with a globular protein standard curve; analytical gel filtration: Superdex200 10/300GL, 50 mM Na2HPO4, 650 mM NaCl pH 7.0, 20-30 μg protein per run.

Consider `NS(=O)(=O)O` [H2NSO3H], for which affinity on DmBCA was put at a Ki of 2.45 mM.
The same measure, in the same setting: with `O=S(=O)(O)O` [SO4^2-] the figure was 1.36 mM; with `I` [I^-], 1.18 mM; with `NS(N)(=O)=O` [H2NSO2NH2], 0.15 mM.
Still for that read-out and setting: the same measure for `F` [F^-]: 0.8 mM; for `N#CO` [CNO^-]: 0.73 mM.
At DmBCA, `O=C(O)O` [HCO3^-] yielded a Ki of 26.9 mM.
Still for that read-out and setting: with `OB(O)c1ccccc1` [Ph-B(OH)2] the figure was 22.4 mM; with `O=NO` [NO2^-], 28.6 mM; with `N#CS` [SCN^-], 1.28 mM.
Same read-out and setting: the same measure for `O=[N+]([O-])O` [NO3^-]: 43.7 mM.
Same read-out and setting: the same measure for `O=S(O)O` [HSO3^-]: 1.29 mM; for `Cl` [Cl^-]: 0.97 mM.
`S` [HS^-] had a Ki on DmBCA of 1.01 mM.
Still for that read-out and setting: with `Br` [Br^-] the figure was 1.04 mM.

B1: Drosophila melanogaster β-carbonic anhydrase (DmBCA) (enzyme, UniProt Q9VHJ5 1-255, looked up)
chain: MERILRGIMRYRNTTREQMVKEFQKVRDNPEPKAVFFTCMDSRMIPTRYTDTHVGDMFVVRNAGNLIPHAQHFQDEYFSCEPAALELGCVVNDIRHIIVCGHSDCKAMNLLYQLRDPDFASKLNRRLSPLRSWLCTHANTSLERFQEWRDAGMKDPLIFSSETPLRRFVAYIDEEQKFALEDKLSQINTLQQMSNIASYGFLKARLESHDLHIHALWFDIYTGDIYYFSRGAKRFLPVDEDTVDRLSEEVRRFYS
notes: cDNA from S2 cells; A thrombin cleavage site stands between DmBCA and the C-terminal His6 (primer R4 encodes LVPRGS-HHHHHH after the last residue); also called D. melanogaster β-CA; Drosophila β-CA; source: Sf9 insect cells (baculovirus), purified from the culture supernatant (Probond nickel-chelating resin)
For the molecule B1, the “stoichiometry N” value in data set [1] was 2.

Source of the values: article PMC2918522, “Characterization of the first beta-class carbonic anhydrase from an arthropod (Drosophila melanogaster) and phylogenetic analysis of beta-class carbonic anhydrases in invertebrates” (BMC Biochemistry, 2010).
